From publication PMC10776578, “Epstein-Barr virus-driven B cell lymphoma mediated by a direct LMP1-TRAF6 complex” (Nature Communications, 2024)
Positions count from the first letter of the chain named. Entries after “also recorded” stand apart in the source; their conditions may differ. Read-outs that look alike come from different tables or passages of the source. No end group written: not given here.

Tests used:
His-TRAF2_311-501 = assay: Peptide array, TRAF2 binding; set-up: key to T2 interaction (peptide array): +: Interaction with TRAF6 or TRAF2 isindicated according to the results shown in Figure 1c.; -: Interaction with TRAF6 or TRAF2 isindicated according to the results shown in Figure 1c; details: for T2 interaction (peptide array): immobilized peptide, 10 µg per mL His-TRAF2, 4 h RT, two independent experiments
Description: (§1) Arrays were synthesized on a Multipep Synthesizer (Intavis Bioanalytical Instruments) on derivatized cellulose (amino-Peg500 UC540, acid-hardened, loading 400 nmol per cm^2, Intavis). After peptides were spot-assembled and deprotected, membranes were washed extensively with dichloromethane, N-methylpyrrolidone, and ethanol and stored at −20 °C until use. Prior to use, filters were rinsed for 10 sec in ethanol and washed three times for ten min each at 50 rpm in PBST (PBS, 0.1% Tween-20) under gentle rocking. Filters were blocked by incubation in PBST supplemented with 5% (w/v) nonfat dry milk powder for 2 h at RT and three washing steps in PBST for 20 min. Subsequently, nonspecific antibody binding sites were blocked by incubation of the filters at 4 °C overnight with either TRAF6 (goat α-TRAF6 C-20 #sc-6223, Santa Cruz Biotech.) or TRAF2 primary antibody (rabbit α-TRAF2 C-20, #sc-876, Santa Cruz Biotech.), diluted at 1:1000 in PBS supplemented with 5% (w/v) nonfat dry milk powder. Following three washing steps with PBS, the filters were incubated with horseradish peroxidase-conjugated α-goat IgG (Dianova, #305-035-003) or α-rabbit IgG (Cell signalling Technology, #7074S) secondary antibody, diluted 1:5000 in PBS supplemented with 5% (w/v) nonfat dry milk powder. Filters were developed with ECL and no nonspecific antibody binding was detected. To detect TRAF6 or TRAF2 binding to the immobilized peptides, filters were washed with PBST and subsequently incubated with 10 µg per mL recombinant purified His-TRAF6 or His-TRAF2 protein in PBST supplemented with 5% (w/v) nonfat dry milk powder for 4 h at RT. After washing the filters in PBST, TRAF protein binding was analyzed by incubation of the filters with TRAF6 (C-20, #sc-6223, Santa Cruz Biotech., used at 1:1000) or TRAF2 (C-20, #sc-876, Santa Cruz Biotech., used at 1:1000) primary and the respective Horseradish peroxidase-coupled secondary antibodies (Dianova, #305-035-003, used at 1:500, or Cell Signalling Technology, #7074, used at 1:5000). ECL signals were captured on X-ray films (Agfa Healthcare).

His-TRAF6_310-522 = assay: Peptide array, TRAF6 binding; set-up: species or system human; key to T6 interaction (peptide array): +: Interaction with TRAF6 or TRAF2 isindicated according to the results shown in Figure 1c.; -: Interaction with TRAF6 or TRAF2 isindicated according to the results shown in Figure 1c; details: for T6 interaction (peptide array): immobilized peptide, 10 µg per mL His-TRAF6, 4 h RT, two independent experiments; for TRAF6 binding to immobilized peptide (in words): peptide array
Description: as §1

[1] = test system: His-TRAF6_310-522 (TRAF6); assay: AlphaScreen PPI assay, TRAF6 binding to GST-LMP1/CD40/RANK proteins; set-up: species or system human; details: for Bmax (best-fit value): AlphaScreen signal
Description: AlphaScreen experiments were performed in 96- or 384-well plates (Perkin Elmer, OptiPlate). In both assay formats, His-TRAF and GST-LMP1, GST-CD40, or GST-RANK proteins were incubated together in 40 µL of PBS (protein concentrations were calculated to the final reaction volume of 60 µL) supplemented with 0.5% BSA (Sigma, #A7030) and 0.1% Tween-20 (AppliChem, #A4974), for 1 h at room temperature (RT). If not indicated otherwise, standard protein concentrations were 300 nM for His-TRAF proteins and 100 nM for GST-LMP1 proteins. Ni-NTA-acceptor (Perkin Elmer, #6760619 C) and GST-acceptor (Perkin Elmer, # 6765300) beads were added each to a final concentration of 1–4 µg per mL in a final reaction volume of 60 µL and incubated for 1 h at RT in the dark. AlphaScreen PPI signals were measured in a CLARIOstar reader (BMG Labtech GmbH).
All statistical analyses were performed with Prism v10.1.0 software (GraphPad Software Inc.). Two-way ANOVA was performed on experiments with two factors of variance (Figs. 1e and 3a). Ordinary one-way ANOVA with multiple comparisons was performed on experiments with one factor of variance (Figs. 2a–e, 3c, 6b, 7b, 8c and Supplementary Fig. 2a). For KD determination, the data from each experiment were cleaned for the hook effect (signal depletion by oversaturation of the beads) and analyzed using the equation one site-specific binding with hill slope (Figs. 1f–i, and Supplementary Fig. 1f). The IC50 was determined using the log(inhibitor) vs. response – variable slope (four parameters) equation (Fig. 8b and d). A paired t-test was used for matched samples (Fig. 8b) and an unpaired t-test was used for unpaired samples (Figs. 7c and 8e).

His-TRAF6_(310-522) = target: T1, His-TRAF6_(310-522) (human, UniProt Q9Y4K3 310-522); assay: AlphaScreen or HTRF; AlphaScreen PPI assay: His-TRAF and GST-LMP1, GST-CD40 or GST-RANK in PBS with 0.5% BSA and 0.1% Tween-20, 1 h at RT; standard 300 nM His-TRAF and 100 nM GST protein if not indicated otherwise; for KD His-TRAF6 at different concentrations, fit one site-specific binding with hill slope; details: both partners purified
T1 construct: also called His-T6; recombinant TRAF6 wild-type; source: E. coli BL21 Codon Plus RIPL, purified (Ni-NTA)
T1 sequence: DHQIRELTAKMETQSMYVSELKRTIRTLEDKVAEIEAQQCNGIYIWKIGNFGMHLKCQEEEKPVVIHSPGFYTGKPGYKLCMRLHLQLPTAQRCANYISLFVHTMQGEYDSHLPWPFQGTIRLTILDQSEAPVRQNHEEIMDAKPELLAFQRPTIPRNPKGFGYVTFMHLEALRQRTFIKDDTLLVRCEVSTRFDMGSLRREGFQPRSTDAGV

[2] = source data, One site -- Specific binding with Hill slope
[3] = source data, One site -- Specific binding with Hill slope, concentrations c H-T6 in nM, read-out: Kd (best-fit value)

Molecule: PHLPTLLLGSSGSGGDDDDPHGPVQLSYYD [peptide 11, LMP1 357-386 (30mer)]
- T2 interaction (peptide array) (His-TRAF2_311-501): -
- T6 interaction (peptide array) (His-TRAF6_310-522): +
- TRAF6 binding to immobilized peptide (in words) (His-TRAF6_310-522): efficiently captured

Molecule: KQEPQEINFPDDLPGSNTAAPVQETLHGCQ [peptide 1, CD40 amino acids 230-259]
- T2 interaction (peptide array) (His-TRAF2_311-501): +
- T6 interaction (peptide array) (His-TRAF6_310-522): +

Molecule: … GDDDDPHGPVQLSAAD [peptide 9, LMP1 371-386, A384A385]
- T2 interaction (peptide array) (His-TRAF2_311-501): -
- T6 interaction (peptide array) (His-TRAF6_310-522): -
- TRAF6 binding to immobilized peptide (in words) (His-TRAF6_310-522): abolished the direct TRAF6 binding

Molecule: GSNTAAAVAEALHGCQPVTQEDGKESRISV [peptide 5, CD40 244-273, A250xAxA]
- T2 interaction (peptide array) (His-TRAF2_311-501): -
- T6 interaction (peptide array) (His-TRAF6_310-522): -

Molecule: DDSLPHPQQATDDSGHESDSNSNEGRHHLL [peptide 6, LMP1 198-227]
- T2 interaction (peptide array) (His-TRAF2_311-501): +
- TRAF2 binding to immobilized peptide (in words) (His-TRAF2_311-501; peptide array): bound
- T6 interaction (peptide array) (His-TRAF6_310-522): -
- TRAF6 binding to immobilized peptide (in words) (His-TRAF6_310-522): did not bind

Molecule: 2: CD40 230-259, A250xAxA (KQEPQEINFPDDLPGSNTAAAVAEALHGCQ; UniProt P25942 230-259, looked up, variant P250A Q252A T254A) [compound 2]
- T2 interaction (peptide array) (His-TRAF2_311-501): -
- T6 interaction (peptide array) (His-TRAF6_310-522): +

Molecule: KAEAQAINFPDDLPGSNTAAPVQETLHGCQ [peptide 3, CD40 230-259, A231xAxA]
- T2 interaction (peptide array) (His-TRAF2_311-501): +
- T6 interaction (peptide array) (His-TRAF6_310-522): -

Molecule: PHLPTLLLGSSGSGGDDDDPHGAVALAYYD [peptide 12, LMP1 357-386, A379xAxA]
- T2 interaction (peptide array) (His-TRAF2_311-501): -
- T6 interaction (peptide array) (His-TRAF6_310-522): -
- TRAF6 binding to immobilized peptide (in words) (His-TRAF6_310-522): abolished the direct TRAF6 binding

Molecule: RANK: recombinant GST-RANK314-355 (GGGPYAQGEDARMLSLVSKTEIEEDSFRQMPTEDEYMDRPSQ; also: GST fusion left off, end not given here)
- h (Hill slope, best-fit value) [1, 2]: 2.024
- Bmax (best-fit value) [1, 2]: 1370733
- Kd [1, 3]: 7.74 nM

Molecule: … GDDDDPHGPVQLSYYD [peptide 8, LMP1 371-386 (16mer)]
- T2 interaction (peptide array) (His-TRAF2_311-501): -
- T6 interaction (peptide array) (His-TRAF6_310-522): +
- TRAF6 binding to immobilized peptide (in words) (His-TRAF6_310-522): efficiently captured

Molecule: GSNTAAPVQETLHGCQPVTQEDGKESRISV [peptide 4, CD40 244-273]
- T2 interaction (peptide array) (His-TRAF2_311-501): +
- T6 interaction (peptide array) (His-TRAF6_310-522): -

Molecule: RANK E346Q (GGGPYAQGEDARMLSLVSKTEIEEDSFRQMPTQDEYMDRPSQ; also: GST fusion left off, end not given here)
- h (Hill slope, best-fit value) [1, 2]: 1.998
- Bmax (best-fit value) [1, 2]: 1302008

B1: CD40: recombinant GST-CD40_216-277 (protein)
chain: KKVAKKPTNKAPHPKQEPQEINFPDDLPGSNTAAPVQETLHGCQPVTQEDGKESRISVQERQ
modifications: left off: GST, end not stated, kept
- h (Hill slope, best-fit value) [1, 2]: 2.083
- Bmax (best-fit value) [1, 2]: 1455821

B2: CD40 E235Q (protein)
chain: B1 chain with E20Q
modifications: left off: GST, end not stated, kept
- h (Hill slope, best-fit value) [1, 2]: 1.924
- Bmax (best-fit value) [1, 2]: 1053663

B3: GST-LMP1_(181-386) A204xAxA (domain or fragment)
chain: LIWMYYHGQRHSDEHHHDDSLPHAQAAADDSGHESDSNSNEGRHHLLVSGAGDGPPLCSQNLGAPGGGPDNGPQDPDNTDDNGPQDPDNTDDNGPHDPLPQDPDNTDDNGPQDPDNTDDNGPHDPLPHSPSDSAGNDGGPPQLTEEVENKGGDQGPPLMTDGGGGHSHDSGHGGGDPHLPTLLLGSSGSGGDDDDPHGPVQLSYYD
notes: also called A204xAxA mutant; CTAR1 mutant; source: E. coli DH5α or BL21 Codon Plus RIPL, purified (glutathione Sepharose 4B)
- binding result (His-TRAF6_(310-522)): binds

B4: LMP1 Y384D (protein)
chain: B3 chain with A24P, A26Q, A28T, Y204D
modifications: left off: GST, end not stated, kept
- TRAF6 binding/affinity (in words) ([1]; AlphaScreen PPI): TRAF6 binding was not abolished
- reduction of affinity to TRAF6 (factor) ([1]; compared with the respective wild-type receptor): 1.8
- Kd ([1]; one site, specific binding with Hill slope, c H-T6 in nM, hook effect data excluded, 95% CI A204xAxA 52,94 to 93,02, Y384D 72,59 to 190,2, read-out: Kd): 131 nM
- h (Hill slope) ([1]; one site, specific binding with Hill slope, hook effect data excluded, Std. Error A204xAxA 0.2126, Y384D 0.1712): 1.019
- Bmax ([1]; one site, specific binding with Hill slope, hook effect data excluded, Std. Error A204xAxA 67298, Y384D 78225): 1231417

B5: LMP1 Q381E (protein)
chain: B3 chain with A24P, A26Q, A28T, Q201E
modifications: left off: GST, end not stated, kept
- fold enhanced affinity for TRAF6 ([1]; compared with LMP1 wild-type): 5.0 -fold
- h (Hill slope, best-fit value) [1, 2]: 1.772
- Bmax (best-fit value) [1, 2]: 1507585

B6: LMP1 Y384F (protein)
chain: B3 chain with A24P, A26Q, A28T, Y204F
modifications: left off: GST, end not stated, kept
- TRAF6 binding/affinity (in words) ([1]; AlphaScreen PPI): improved the affinity of LMP1 for TRAF6; also recorded: higher affinity of Y384F to TRAF6 as compared to wild-type LMP1
- Kd ([1]; AlphaScreen PPI, His-TRAF6_310-522 titrated with GST-receptor protein, PBS 0.5% BSA 0.1% Tween-20, 1 h RT, one site-specific binding with hill slope, mean ± SD, n = 3 (CD40), 4 (LMP1), 6 (RANK), read-out: KD of TRAF6 interaction): 21.7 ± 6.6 nM
- h (Hill slope, best-fit value) [1, 2]: 1.321
- Bmax (best-fit value) [1, 2]: 1186145
- Kd [1, 3]: 21.7 nM

B7: GST-LMP1_(181-386) G378A (domain or fragment)
chain: B3 chain with A24P, A26Q, A28T, G198A
notes: source: E. coli DH5α or BL21 Codon Plus RIPL, purified (glutathione Sepharose 4B)
- binding result (His-TRAF6_(310-522)): binds
